Experimental data from patent US20100125081A1, “NEW COMPOUNDS 574” (ASTRAZENECA AB, priority 2008, published 2010).

Molecular target: T1, human β-Secretase (Homo sapiens, UniProt P56817)
T1 construct: soluble part of the human β-Secretase (AA 1-AA 460); Fc domain of IgG1 (C); made in house
Test: TR-FRET assay (β-secretase enzyme, sBACE-Fc)
Type: biochemical
Details: soluble human β-secretase (AA 1-460) Fc fusion, substrate (Europium)CEVNLDAEFK(Qsy7) 100 nM, pH 4.5; unit inferred, nM taken
Protocol: The β-secretase enzyme used in the TR-FRET is prepared as follows:
The cDNA for the soluble part of the human β-Secretase (AA 1-AA 460) was cloned using the ASP2-Fc10-1-IRES-GFP-neoK mammalian expression vector. The gene was fused to the Fc domain of IgG1 (affinity tag) and stably cloned into HEK 293 cells.
The enzyme (truncated form) was diluted to 6 μg/mL (stock 1.3 mg/mL) and the substrate (Europium)CEVNLDAEFK(Qsy7) to 200 nM (stock 120 μM) in reaction buffer (NaAcetate, chaps, triton x-100, EDTA pH4.5). The robotic systems Biomek FX and Velocity 11 were used for all liquid handling and the enzyme and substrate solutions were kept on ice until they were placed in the robotic system. Enzyme (9 μl) was added to the plate then 1 μl of compound in dimethylsulphoxide was added, mixed and pre-incubated for 10 minutes. Substrate (10 μl) was then added, mixed and the reaction proceeded for 15 minutes at room temperature. The reaction was stopped with the addition of Stop solution (7 μl, NaAcetate, pH 9). The fluorescence of the product was measured on a Victor II plate reader with an excitation wavelength of 340 nm and an emission wavelength of 615 nm. The assay was performed in a Costar 384 well round bottom, low volume, non-binding surface plate (Corning #3676). The final concentration of the enzyme was 2.7 μg/ml; the final concentration of substrate was 100 nM (Km of ˜250 nM). The dimethylsulphoxide control, instead of test compound, defined the 100% activity level and 0% activity was defined by wells lacking enzyme (replaced with reaction buffer).

T1 sequence (P56817 22-460): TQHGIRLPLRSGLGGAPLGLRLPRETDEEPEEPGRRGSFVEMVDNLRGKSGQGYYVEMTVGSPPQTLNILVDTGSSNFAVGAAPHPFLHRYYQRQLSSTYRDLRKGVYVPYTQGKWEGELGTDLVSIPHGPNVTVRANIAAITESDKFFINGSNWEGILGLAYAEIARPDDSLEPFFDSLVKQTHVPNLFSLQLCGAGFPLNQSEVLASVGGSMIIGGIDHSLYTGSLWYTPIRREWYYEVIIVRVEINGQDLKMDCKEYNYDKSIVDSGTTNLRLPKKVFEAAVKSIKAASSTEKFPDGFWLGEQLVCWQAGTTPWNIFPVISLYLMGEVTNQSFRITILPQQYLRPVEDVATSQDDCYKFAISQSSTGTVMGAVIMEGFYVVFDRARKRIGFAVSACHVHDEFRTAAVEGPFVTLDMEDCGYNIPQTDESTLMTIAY

IC50 [nM] | SMILES
61 | Cc1cc(C2(c3cccc(C#N)c3)N=C(N)c3ncccc32)cc(C2CC2)c1OC(F)F (stereo not shown) [Example 32, 3-[7-Amino-5-(3-cyclopropyl-4-difluoromethoxy-5-methyl-phenyl)-5H-pyrrolo[3,4-b]pyridin-5-yl]-benzonitrile]
222 | COc1ccc(C2(c3cccc(-c4cncnc4)c3)N=C(N)c3ncccc32)cc1C1CC1 (stereo not shown) [Example 33, 5-(3-Cyclopropyl-4-methoxy-phenyl)-5-(3-pyrimidin-5-yl-phenyl)-5H-pyrrolo[3,4-b]pyridin-7-ylamine]
30 | NC1=NC(c2cccc(-c3cncnc3)c2)(c2ccc(OC(F)F)c(CCF)c2)c2cccnc21 (stereo not shown) [Example 34, 5-[4-Difluoromethoxy-3-(2-fluoro-ethyl)-phenyl]-5-(3-pyrimidin-5-yl-phenyl)-5H-pyrrolo[3,4-b]pyridin-7-ylamine]
125 | COc1c(C)cc(C2(c3cccc(-c4cncnc4)c3)N=C(N)c3ncccc32)nc1C (stereo not shown) [Example 35, 5-(5-Methoxy-4,6-dimethyl-pyridin-2-yl)-5-(3-pyrimidin-5-yl-phenyl)-5H-pyrrolo[3,4-b]pyridin-7-ylamine]
41 | COc1c(C)cc(C2(c3cccc(-c4cncnc4)c3)N=C(N)c3ncccc32)cc1F (stereo not shown) [Example 36, 5-(3-Fluoro-4-methoxy-5-methylphenyl)-5-(3-(pyrimidin-5-yl)phenyl)-5H-pyrrolo[3,4-b]pyridin-7-amine]
206 | COc1ccc(F)c(-c2cc(C3(c4ccnc(C(F)(F)F)c4)N=C(N)c4ncccc43)ccc2O)c1 (stereo not shown) [Example 37, 5-(7-Amino-5-(2-(trifluoromethyl)pyridin-4-yl)-5H-pyrrolo[3,4-b]pyridin-5-yl)-2′-fluoro-5′-methoxybiphenyl-2-ol]
658 | NC1=NC(c2ccnc(C(F)(F)F)c2)(c2ccc(O)c(-c3ccccc3F)c2)c2cccnc21 (stereo not shown) [Example 38, 5-(7-Amino-5-(2-(trifluoromethyl)pyridin-4-yl)-5H-pyrrolo[3,4-b]pyridin-5-yl)-2′-fluorobiphenyl-2-ol]
